Source: ChEMBL document CHEMBL1799917, “Isolation, sequencing, and structure-activity relationships of cyclotides” (J Nat Prod, 2010)
Values after ≈ are worked out from the molar mass of the structure shown. Where a SMILES comes first, the peptide text is derived from it. Bridges are numbered along the chain shown (N, C = ends). [ ]: non-standard residue; d: D form. aThr = C[C@H](O)[C@H](N)C(=O)O

Columns and labels:
Escherichia coli = test: Antimicrobial activity against Escherichia coli ATCC 25922; type: functional
Candida tropicalis = test: Antimicrobial activity against Candida tropicalis ATCC 37097; type: functional
Proteus vulgaris = test: Antimicrobial activity against Proteus vulgaris ATCC 49132; type: functional
Pseudomonas aeruginosa = test: Antimicrobial activity against Pseudomonas aeruginosa ATCC 27853; type: functional
Kluyveromyces marxianus = test: Antimicrobial activity against Candida kefyr ATCC 37095; type: functional
Staphylococcus aureus = test: Antimicrobial activity against Staphylococcus aureus ATCC 29213; type: functional
Klebsiella oxytoca = test: Antimicrobial activity against Klebsiella oxytoca ATCC 49131; type: functional
[1] = Hemolytic activity in human type A RBC; type: ADME, cell-based, Erythrocyte; conditions: human type A red blood cells, read-out: HD50 (the source's name)
[2] = Hemolytic activity in human type A RBC assessed as concentration required to cause 11% hemolysis after 1 hr by microtitre plate; type: ADME, cell-based; conditions: erythrocyte
[3] = Hemolytic activity in human RBC; type: ADME, cell-based, Erythrocyte; conditions: human red blood cells, read-out: HD50 (the source's name)
RPMI-8226 = test: Cytotoxicity against human RPMI8226/S cells after 72 hrs by fluorometric microculture cytotoxicity assay; type: functional, cell-based
U-937 = test: Cytotoxicity against human vincristine-resistant U937 cells after 72 hrs by fluorometric microculture cytotoxicity assay; type: functional, cell-based; conditions: U-937, 72 h
ACHN = test: Cytotoxicity against human ACHN cells after 72 hrs by fluorometric microculture cytotoxicity assay; type: functional, cell-based
CCRF-CEM = test: Cytotoxicity against human CCRF-CEM cells after 72 hrs by fluorometric microculture cytotoxicity assay; type: functional, cell-based
[4] = Cytotoxicity against human CEM/VM1 cells after 72 hrs by fluorometric microculture cytotoxicity assay; type: functional, cell-based; conditions: CEM-VM1, 72 h
[5] = Cytotoxicity against human 8226/DOX40 cells after 72 hrs by fluorometric microculture cytotoxicity assay; type: functional, cell-based
R1 = test: Cytotoxicity against mouse R1 cells after 72 hrs by fluorometric microculture cytotoxicity assay; type: cell-based; conditions: R1, 72 h
[6] = Cytotoxicity against human 8226/LR-5 cells after 72 hrs by fluorometric microculture cytotoxicity assay; type: functional, cell-based
U-937/GTB = test: Cytotoxicity against human U937/GTB cells after 72 hrs by fluorometric microculture cytotoxicity assay; type: functional, cell-based
CEM-SS (Homo sapiens) = test: Cytotoxicity against human CEM-SS cells
[7] = test system: Human immunodeficiency virus 1; test: Antiviral activity against HIV1 infected in human CEM-SS cells assessed as protection against virus-induced cytopathic effect by XTT method; type: functional, organism-based; conditions: Human immunodeficiency virus 1, CEM-SS

CC[C@H](C)[C@@H]1NC(=O)[C@@H]2CCCN2C(=O)[C@H](CS)NC(=O)CNC(=O)[C@H](CCC(=O)O)NC(=O)[C@H](CO)NC(=O)[C@H](CS)NC(=O)[C@H](C(C)C)NC(=O)[C@H](Cc2ccccc2)NC(=O)[C@H]([C@@H](C)CC)NC(=O)[C@@H]2CCCN2C(=O)[C@H](CS)NC(=O)[C@H]([C@H](C)O)NC(=O)[C@H](C(C)C)NC(=O)[C@H]([C@H](C)O)NC(=O)[C@H](C)NC(=O)[C@H](CC(C)C)NC(=O)[C@H](CC(C)C)NC(=O)CNC(=O)[C@H](CS)NC(=O)[C@H](CO)NC(=O)[C@H](CS)NC(=O)[C@H](CCCCN)NC(=O)[C@H](CO)NC(=O)[C@H](CCCCN)NC(=O)[C@H](C(C)C)NC(=O)[C@H](CS)NC(=O)[C@H](Cc2ccc(O)cc2)NC(=O)[C@H](CCCCN)NC(=O)[C@H](CC(N)=O)NC(=O)[C@H](CO)NC1=O [CYCLOPSYCHOTRIDE A] (cyclo(A[aThr]V[aThr]CPIFVCSEGCPISNKYCVKSKCSCGLL))
MIC (Escherichia coli): 1.55 µM (≈ 5.02 µg/mL) | MIC (Candida tropicalis): 56.5 µM (≈ 183 µg/mL) | MIC (Proteus vulgaris): 13.2 µM (≈ 42.7 µg/mL) | MIC (Pseudomonas aeruginosa): 13.5 µM (≈ 43.7 µg/mL) | MIC (Kluyveromyces marxianus): 14 µM (≈ 45.3 µg/mL) | MIC (Staphylococcus aureus): 39 µM (≈ 126 µg/mL) | MIC (Klebsiella oxytoca): 5.8 µM (≈ 18.8 µg/mL) | HC50 [1]: 405 µM

CC[C@H](C)[C@@H]1NC(=O)[C@H](CO)NC(=O)CNC(=O)[C@H](CC(N)=O)NC(=O)[C@H](CCCCN)NC(=O)[C@H](C)NC(=O)[C@@H]2CSSC[C@@H]3NC(=O)[C@H](CCCCN)NC(=O)CNC(=O)[C@H](C)NC(=O)[C@H](Cc4ccccc4)NC(=O)[C@@H]4CSSC[C@H](NC(=O)[C@H](CO)NC(=O)[C@H](CSSC[C@H](NC(=O)[C@H](C)NC(=O)[C@@H]5CCCN5C1=O)C(=O)NCC(=O)N[C@@H](CCC(=O)O)C(=O)N[C@@H](CO)C(=O)N4)NC(=O)CNC(=O)[C@@H]1CCCN1C(=O)[C@H]([C@@H](C)O)NC(=O)[C@H](Cc1ccc(O)cc1)NC3=O)C(=O)N[C@@H](CO)C(=O)N[C@@H](CCCCN)C(=O)N[C@@H](Cc1ccc(O)cc1)C(=O)N1CCC[C@H]1C(=O)N[C@@H](CC(C)C)C(=O)N2 [CYCLOVIOLACIN O14] (cyclo(ACGESCFAGKCYTPGCSCSKYPLCAKNGSIP); disulfide 2-16, 6-18, 11-24)
Activity [2]: 25 µM

CC(C)C[C@@H]1NC(=O)CNC(=O)[C@H](CC(N)=O)NC(=O)[C@H](CCCNC(=N)N)NC(=O)[C@H]([C@@H](C)O)NC(=O)[C@@H]2CSSC[C@@H]3NC(=O)[C@H]([C@@H](C)O)NC(=O)CNC(=O)CNC(=O)[C@H](C(C)C)NC(=O)[C@@H]4CSSC[C@H](NC(=O)[C@H](CO)NC(=O)[C@H](CSSC[C@H](NC(=O)[C@H](C(C)C)NC(=O)[C@@H]5CCCN5C1=O)C(=O)NCC(=O)N[C@@H](CCC(=O)O)C(=O)N[C@@H]([C@@H](C)O)C(=O)N4)NC(=O)CNC(=O)[C@@H]1CCCN1C(=O)[C@H]([C@@H](C)O)NC(=O)[C@H](CC(N)=O)NC3=O)C(=O)N[C@@H](CO)C(=O)N[C@@H](Cc1c[nH]c3ccccc13)C(=O)N1CCC[C@H]1C(=O)N[C@@H](C(C)C)C(=O)N2
HC50 [3]: 50 µM | IC50 (RPMI-8226): 2730 nM | IC50 (U-937): 2730 nM | IC50 (ACHN): 2730 nM | IC50 (CCRF-CEM): 2730 nM | IC50 [4]: 2730 nM | IC50 [5]: 2730 nM | IC50 (R1): 2730 nM | IC50 [6]: 2730 nM | IC50 (U-937/GTB): 2730 nM

CC[C@H](C)[C@@H]1NC(=O)[C@@H]2CCCN2C(=O)[C@H](C(C)C)NC(=O)CNC(=O)[C@H](CC(N)=O)NC(=O)[C@H](CCCNC(=N)N)NC(=O)[C@H]([C@@H](C)O)NC(=O)[C@@H]2CSSC[C@@H]3NC(=O)[C@H]([C@@H](C)O)NC(=O)CNC(=O)[C@H](CC(C)C)NC(=O)[C@H]([C@@H](C)O)NC(=O)[C@@H]4CSSC[C@H](NC(=O)[C@H](CO)NC(=O)[C@H](CSSC[C@H](NC1=O)C(=O)NCC(=O)N[C@@H](CCC(=O)O)C(=O)N[C@@H]([C@@H](C)O)C(=O)N4)NC(=O)CNC(=O)[C@H](C)NC(=O)[C@H]([C@@H](C)O)NC(=O)[C@H](Cc1ccc(O)cc1)NC3=O)C(=O)N[C@@H](CO)C(=O)N[C@@H](Cc1c[nH]c3ccccc13)C(=O)N1CCC[C@H]1C(=O)N[C@@H](C(C)C)C(=O)N2 (cyclo(AGCSCSWPVCTRNGVPICGETCTLGTCYT); disulfide 3-18, 5-22, 10-27)
IC50 (RPMI-8226): 2630 nM | IC50 (U-937): 2630 nM | IC50 (ACHN): 2630 nM | IC50 (CCRF-CEM): 2630 nM | IC50 [4]: 2630 nM | IC50 [5]: 2630 nM | IC50 (R1): 2630 nM | IC50 [6]: 2630 nM | IC50 (U-937/GTB): 2630 nM

CC(C)C[C@@H]1NC(=O)CNC(=O)[C@H](CC(N)=O)NC(=O)[C@H](C)NC(=O)[C@H]([C@@H](C)O)NC(=O)[C@@H]2CSSC[C@@H]3NC(=O)[C@H]([C@@H](C)O)NC(=O)CNC(=O)CNC(=O)[C@H](C(C)C)NC(=O)[C@@H]4CSSC[C@H](NC(=O)[C@H](CO)NC(=O)[C@H](CSSC[C@H](NC(=O)[C@H](C(C)C)NC(=O)[C@@H]5CCCN5C1=O)C(=O)NCC(=O)N[C@@H](CCC(=O)O)C(=O)N[C@@H]([C@@H](C)O)C(=O)N4)NC(=O)CNC(=O)[C@@H]1CCCN1C(=O)[C@H]([C@@H](C)O)NC(=O)[C@H](CC(N)=O)NC3=O)C(=O)N[C@@H](CO)C(=O)N[C@@H](CCCNC(=N)N)C(=O)N1CCC[C@H]1C(=O)N[C@@H](C(C)C)C(=O)N2 [VIOLAPEPTIDE 1]
HC50 [3]: 50 µM

CC[C@H](C)[C@@H]1NC(=O)[C@@H]2CSSC[C@@H]3NC(=O)[C@H](C(C)C)NC(=O)[C@H](CCCCN)NC(=O)[C@H](CC(N)=O)NC(=O)[C@H](CCCCN)NC(=O)[C@@H]4CSSC[C@H](NC(=O)[C@H](CO)NC(=O)[C@H](CCC(=O)O)NC(=O)CNC(=O)[C@H](CSSC[C@H](NC(=O)CNC(=O)[C@H](CC(C)C)NC(=O)[C@H](CC(C)C)NC(=O)[C@H]([C@@H](C)O)NC(=O)[C@H](CO)NC1=O)C(=O)N[C@@H](CO)C(=O)N4)NC(=O)[C@@H]1CCCN1C(=O)[C@H]([C@@H](C)CC)NC(=O)[C@H](C(C)C)NC(=O)CNC(=O)[C@H](CC(N)=O)NC(=O)[C@H](CCCNC(=N)N)NC(=O)[C@H](Cc1ccc(O)cc1)NC3=O)C(=O)N[C@@H](C(C)C)C(=O)N[C@@H](Cc1ccccc1)C(=O)N[C@@H]([C@@H](C)CC)C(=O)N1CCC[C@H]1C(=O)N2 [CIRCULIN B] (cyclo(CGESCVFIPCISTLLGCSCKNKVCYRNGVIP); disulfide 1-17, 5-19, 10-24)
IC50 (CEM-SS (Homo sapiens)): 500 nM | MIC (Escherichia coli): 0.41 µM (≈ 1.35 µg/mL) | IC50 (R1): 820000 nM | MIC (Proteus vulgaris): 6.8 µM (≈ 22.3 µg/mL) | MIC (Pseudomonas aeruginosa): 25.5 µM (≈ 83.7 µg/mL) | MIC (Kluyveromyces marxianus): 29 µM (≈ 95.2 µg/mL) | MIC (Staphylococcus aureus): 13.5 µM (≈ 44.3 µg/mL) | MIC (Klebsiella oxytoca): 8.2 µM (≈ 26.9 µg/mL) | HC50 [1]: 550 µM

CC[C@H](C)[C@@H]1NC(=O)[C@H](CCSC)NC(=O)[C@H](C)NC(=O)[C@@H]2CSSC[C@@H]3NC(=O)[C@H](CO)NC(=O)[C@@H]4CSSC[C@H](NC(=O)[C@H](CO)NC(=O)[C@H]([C@@H](C)CC)NC(=O)[C@H](CO)NC(=O)[C@H](CC(N)=O)NC(=O)[C@H](CC(C)C)NC(=O)[C@H](Cc5ccc(O)cc5)NC(=O)[C@H](CSSC[C@H](NC(=O)[C@H](Cc5ccccc5)NC(=O)[C@H](CO)NC1=O)C(=O)N[C@@H](Cc1ccccc1)C(=O)N[C@@H]([C@@H](C)O)C(=O)N[C@@H](CCC(=O)O)C(=O)N[C@@H](C(C)C)C(=O)N[C@@H]([C@@H](C)CC)C(=O)NCC(=O)N4)NC(=O)[C@H](C(C)C)NC(=O)[C@H](CCCCN)NC(=O)[C@H](CC(N)=O)NC(=O)[C@H](CCCCN)NC3=O)C(=O)NCC(=O)N[C@@H](CCC(=O)O)C(=O)N[C@@H](CO)C(=O)N2 (cyclo(AMISFCFTEVIGCSCKNKVCYLNSISCGESC); disulfide 6-20, 13-27, 15-31)
EC50 [7]: 870 nM

CC[C@H](C)[C@@H]1NC(=O)[C@@H]2CCCN2C(=O)[C@H](Cc2ccc(O)cc2)NC(=O)[C@H](CO)NC(=O)[C@@H]2CSSC[C@@H]3NC(=O)[C@H]([C@@H](C)O)NC(=O)[C@H](CCC(=O)O)NC(=O)CNC(=O)[C@@H]4CSSC[C@H](NC(=O)CNC(=O)[C@@H]5CCCN5C(=O)[C@H]([C@@H](C)O)NC(=O)[C@H](Cc5ccc(O)cc5)NC(=O)[C@H](CSSC[C@H](NC1=O)C(=O)N[C@@H](CCCCN)C(=O)N[C@@H](CCCCN)C(=O)N[C@@H](CC(N)=O)C(=O)NCC(=O)N[C@@H](CC(C)C)C(=O)N[C@@H](C(C)C)C(=O)N1CCC[C@H]1C(=O)N4)NC(=O)[C@H](CCCCN)NC(=O)CNC(=O)[C@H]([C@@H](C)O)NC(=O)[C@H](Cc1ccccc1)NC3=O)C(=O)N[C@@H](CO)C(=O)N2 [CYCLOVIOLACIN O15] (cyclo(CFTGKCYTPGCSCSYPICKKNGLVPCGET); disulfide 1-13, 6-18, 11-26)
Activity [2]: 25 µM
